Several values for one entry are separate records, joined by “and”; a condition that tells them apart may be missing. Equal entries are not always repeated.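 Test compounds were applied to cells in 96-well plates for 48 hours at 5 doses. The concentration for 50% growth inhibition is given as GI50. TGI denotes the concentration required for complete inhibition of growth.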

Some test systems named below: DMS 114 small cell lung; DMS 273 small cell lung; HOP-18 NSCLC; KM20L2 colon; LXFL 529 NSCLC; M19-MEL melanoma; RXF-631 renal; SNB-78 CNS; MDA-N; SN12K1 renal.
Holding throughout (assay): NCI tumour cell line growth inhibition, 48 h

Turning to `CCC(=O)C(C)C(=O)C(=O)C(=O)OC` (centres undefined), the TGI in the experiment on DMS 114 small cell lung, in the experiment on DMS 273 small cell lung, with HOP-18 NSCLC, with KM20L2 colon, in the experiment on LXFL 529 NSCLC and in the experiment with M19-MEL melanoma was above 100 µM throughout. Also, the TGI in the experiment on RXF-631 renal and with SNB-78 CNS was above 100 µM throughout.

With `CC(C)(O)[C@@H]1CC[C@@]2(C)CCC[C@H](O)[C@H]2C1`, the TGI with DMS 114 small cell lung, in the experiment with DMS 273 small cell lung, with HOP-18 NSCLC, with KM20L2 colon, with LXFL 529 NSCLC and in the experiment on M19-MEL melanoma was above 100 µM in each case. Besides, the TGI in the experiment with RXF-631 renal is above 100 µM.

Regarding `CC(=O)OC1CC[C@@]2(C)C(CC[C@]3(C)C2CC=C2[C@@H]4CC(C)(C)CCC4(C)CCC23C)[C@@]1(C)C(=O)O` (some centres undefined), the TGI in the experiment with DMS 114 small cell lung turned out to be 40.2 µM; in the experiment with DMS 273 small cell lung it was 55.5 µM; in the experiment with HOP-18 NSCLC it was 43.7 µM; in the experiment on KM20L2 colon, 36.7 µM; in the experiment with LXFL 529 NSCLC, 32.9 µM; in the experiment with M19-MEL melanoma, 54 µM. Further, the TGI in the experiment with MDA-N is 64.8 µM; with RXF-631 renal, 44.7 µM; in the experiment with SNB-78 CNS, 48.8 µM.

Turning to `NC(=S)N/N=C/c1ccc(O)cn1`, the GI50 in the experiment with DMS 114 small cell lung is 3.78 µM and 1.04 µM and 2.04 µM; with DMS 273 small cell lung, 8.83 µM and 5.35 µM; with HOP-18 NSCLC, 21 µM; in the experiment on KM20L2 colon it was 31.7 µM and 19.7 µM and 10.6 µM; in the experiment on M19-MEL melanoma it was 15.4 µM and 9.44 µM. Besides, the TGI with DMS 273 small cell lung was 31.1 µM and 37 µM and 16.7 µM; in the experiment on HOP-18 NSCLC, 134 µM and 974 µM; in the experiment on KM20L2 colon, above 1500 µM; in the experiment on MDA-N it was above 1180 µM; with SN12K1 renal it was above 1500 µM.

Regarding `OC(C1CO1)C(O)C1CO1` (centres undefined), the TGI is 150 µM with DMS 114 small cell lung; 76.9 µM with DMS 273 small cell lung; 150 µM in the experiment with HOP-18 NSCLC; 150 µM in the experiment with KM20L2 colon; 150 µM with M19-MEL melanoma; 134 µM and 284 µM in the experiment with MDA-N. The TGI in the experiment on SN12K1 renal and in the experiment on SNB-78 CNS was 150 µM in each case. Besides, the GI50 in the experiment on MDA-N is 92.2 µM.

For the compound `CCCCCCCCC(O)C#CC(N)=O` (centres undefined), the TGI in the experiment on DMS 114 small cell lung is 17.9 µM; in the experiment with DMS 273 small cell lung, 20.3 µM; in the experiment with HOP-18 NSCLC, 26 µM; with KM20L2 colon it was 35.1 µM; with LXFL 529 NSCLC, 23.3 µM; in the experiment on M19-MEL melanoma, 24.4 µM. Moreover, the TGI in the experiment with RXF-631 renal was 29.8 µM; with SNB-78 CNS it was 57.5 µM.

Regarding `CC(C)[NH-].CC(C)[NH-].O.O.[Cl][Pt+2][Cl]`, the GI50 in the experiment with DMS 114 small cell lung is 10.9 µM; in the experiment with HOP-18 NSCLC it was 60.5 µM; with KM20L2 colon it was 15.2 µM; in the experiment on M19-MEL melanoma it was 21.3 µM; in the experiment with MDA-N it was 17.4 µM; with SN12K1 renal, 31.1 µM. Further, in the experiment with SNB-78 CNS, the GI50 is 54.5 µM. The TGI turned out to be 44.1 µM in the experiment with DMS 114 small cell lung; 337 µM in the experiment with HOP-18 NSCLC; 141 µM in the experiment on KM20L2 colon; 77.1 µM in the experiment on M19-MEL melanoma; 106 µM in the experiment with MDA-N; 150 µM in the experiment with SN12K1 renal. This compound also returned a TGI in the experiment on SNB-78 CNS of 375 µM.

Regarding `O=C(NCCCCCCNC(=O)n1cc(F)c(=O)[nH]c1=O)NCCCOCCOCCOCCOCCOCCOCCOCCOCCOCCOCCOCCOCCOCCOCCOCCOCCOCCOCCOCCOCCOCCCNC(=O)C(O)C(O)C(OC1OC(CO)C(O)C(O)C1O)C(O)CO` (centres undefined), the TGI in the experiment with DMS 114 small cell lung, with DMS 273 small cell lung, in the experiment on HOP-18 NSCLC, in the experiment on KM20L2 colon, in the experiment with M19-MEL melanoma and in the experiment on MDA-N was above 100 µM throughout. The TGI in the experiment with SN12K1 renal and in the experiment on SNB-78 CNS was above 100 µM each time.

Regarding `CCOC(=O)NC1=C(N2CC2)C(=O)C(NC(=O)OCC)=C(N2CC2)C1=O`, the GI50 is 3.49 µM in the experiment on DMS 114 small cell lung; 1.01 µM with DMS 273 small cell lung; 8.57 µM in the experiment on HOP-18 NSCLC; 4.34 µM in the experiment with LXFL 529 NSCLC; 6.73 µM and 14.4 µM with RXF-631 renal; 9.36 µM in the experiment on SNB-78 CNS. The TGI with DMS 114 small cell lung is 7.85 µM and 7.33 µM; in the experiment on DMS 273 small cell lung, 20.5 µM and 41.4 µM; in the experiment with HOP-18 NSCLC, 24.4 µM and 49.9 µM; with KM20L2 colon it was 31.6 µM and 45.3 µM; in the experiment with LXFL 529 NSCLC, 15 µM and 9.51 µM; in the experiment on M19-MEL melanoma, 19.2 µM and 12.5 µM. The TGI in the experiment on MDA-N is 5.41 µM; with RXF-631 renal, 30.3 µM and 54.6 µM; in the experiment on SN12K1 renal, 15.7 µM; in the experiment with SNB-78 CNS it was 24.2 µM and 28.5 µM.

These data come from PubChem BioAssay (NCI).
